Where a SMILES comes first, the peptide text is derived from it. Where no end group is shown, it is not given here. [ ]: non-standard residue; d: D form. The star is where a group is joined. Desaminotyrosyl = O=C(CCc1ccc(O)cc1)*
Tested on: rat pituitary cells
Assay type: cell-based
Settings: not given
Protocol: The biological activity of the novel peptides were compared with that of a synthetic standard of the natural sequence of GRF(1-44)-NH2 (SEQ ID NO: 1-NH2) which was isolated from a human pancreatic tumor of an individual suffering from acromegaly (Salk Institute standard hp-GRF-NH2 (NL-A-10)). The assay for biological activity, which is based on the ability to stimulate production of growth hormone in rat pituitary cells in tissue culture, was performed in the following manner. Pituitaries from 30-40 male Sprague-Dawley rats (175 g) were removed aseptically after decapitation. The anterior lobes were collected, washed 3 times in sterile Hepes buffer (0.025M)(pH 7.35) and dispersed at 37° C. in 20-30 ml Hepes buffer (pH 7.35) containing collagenase (4 mg per ml) and Dispase (Protease grande II, 2 mg per ml). After gentle 80 min. vortexing and trituration by Pasteur pipette, the dispersed cells were separated by centrifugation (150×g, 4 min.) and re-suspended in Hepes buffer containing neuraminidase (4 mg/ml), and […] ethylenediaminetetraacetic acid (EDTA) disodium salt pH 7.35, for 10 min. The cells were washed twice with plating medium and plated on multiwell-plates (1.5×10^5 cells per ml) using the following defined medium: F-12/DMEM/BGJ(6:3:1) (Gibco: 430-1700/430-1600/320-2591) with 2 g BSA/L., 2.38 g Hepes/L.,50 mg Gentamycin/L (Schering Co.). The medium in each well was supplemented either with the novel peptide or natural GRF(1-44)-NH2 (SEQ ID NO: 1-NH2) at concentrations ranging from 3.1 to 200 fmol. per ml. of medium. Control wells contained no supplement. Plating was done with this medium added with 2% fetal calf serum to ensure rapid fixation of the cells. On the fourth day the cells were washed twice with the defined medium without fetal calf serum. Finally […] of defined medium was added to each well plus […] of the same medium containing each individual treatment, in triplicate. After 3 hours of incubation the medium was collected and diluted as required to conduct radioimmunoassay (RIA) for rat growth hormone. RIAs were conducted using Sinha's anti-murine GH immune serum and procedures according to the National Pituitary Agency using protein A to precipitate antibody antigen complex.

Row | Compound | Potency of GRF Analogs Relative to GRF(1-44)-NH2 (SEQ ID NO: 1-NH2)
1 | CC[C@H](C)[C@H](NC(=O)[C@H](C)NC(=O)[C@H](CC(=O)O)NC(=O)[C@@H](C)NC(=O)CCc1ccc(O)cc1)C(=O)N[C@@H](Cc1ccccc1)C(=O)N[C@H](C(=O)N[C@@H](CCC(N)=O)C(=O)N[C@@H](CO)C(=O)N[C@@H](Cc1ccc(O)cc1)C(=O)N[C@@H](CCCNC(=N)N)C(=O)N[C@@H](CCCCN)C(=O)N[C@H](C(=O)N[C@@H](CC(C)C)C(=O)N[C@@H](C)C(=O)N[C@@H](CCC(N)=O)C(=O)N[C@@H](CC(C)C)C(=O)N[C@@H](CO)C(=O)N[C@@H](C)C(=O)N[C@@H](CCCNC(=N)N)C(=O)N[C@@H](CCCCN)C(=O)N[C@@H](CC(C)C)C(=O)N[C@@H](CC(C)C)C(=O)N[C@@H](CCC(N)=O)C(=O)N[C@@H](CC(=O)O)C(=O)N[C@H](C(=O)N[C@@H](CC(C)C)C(=O)N[C@@H](CO)C(=O)N[C@@H](CCCNC(=N)N)C(=O)N[C@@H](CCC(N)=O)C(=O)N[C@@H](CCC(N)=O)C(=O)NCC(=O)O)[C@@H](C)CC)C(C)C)[C@@H](C)O [SEQ ID NO: 31-OH] (Desaminotyrosyl-[dA]DAIFTQSYRKVLAQLSARKLLQDILSRQQG-OH) | 4.20
2 | HADAIFTQSYRKVLAQLSARKLLQDILSRQQG [SEQ ID NO: 23-OH] | 2.96
3 | HVDAIFTQSYRKVLAQLSARKLLQDILNRQQG [SEQ ID NO: 14-OH] | 3.11
4 | HVDAIFTQSYRKVLAQLSARKLLQDILSRQQG [SEQ ID NO: 13-OH] | 2.79

Tested on: not given
Settings: products of Asn^8 deamidation of [Leu^27]-GRF(1-32)-NH2 at pH 7.4, literature; cited from earlier work

Row | Compound | Biological activities
5 | [Asp^8, Leu^27 ]-GRF(1-32)-NH2 (YADAIFTDSYRKVLGQLSARKLLQDILSRQQG-NH2) [deamidation product of [Leu^27]-GRF(1-32)-NH2] | substantially reduced biological activities
